US10751322B2, “Indole-3-aldehyde for treating dysreactive immune disorders” (Universita′ degli Studi di Perugia, priority 2013, dated 2020)

Experiments:
AhR = biological target: T1, AhR (Mus musculus, UniProt P30561); assay: AhR-responsive luciferase reporter test of agonist activity; type: cell-based; settings: cell line H1L1.1c2, FIG. 1
T1 construct: endogenous in cells; host or cells: H1L1.1c2
Procedure: For this test, an AhR-responsive cell line was stimulated (cell line H1L1.1c2 containing a luciferase of firefly sensitive to stably transfected AhR) with IAld, indole-3-acetaldehyde (IAAld), indole-3-acetic acid (IAA) and indole-3-lactic acid (ILA). In a way well known to the technician in the field, the agonist activity was determined by means of luciferase test, and in FIG. 1 the luciferase activity of the different ligands, representative of such agonist activity, has been indicated, on the ordinate, as a percentage of the response induced by 50 nM of formylindolo[3,2-b]carbazole (FICZ) according to the ligand dose, expressed in logarithmic scale on the abscissa.

[1] = tested on: genes Cyp1A1, Cyp1B1, IL-22, IL-10 and IDO1; type: cell-based, mice
Procedure: (§1) For these verifications, cultures were set up of mice stomachs and colons stimulated with 1 or 100 mM of IAld for 24 hours in vitro before determining the transcription of the above indicated genes by means of polymerase reaction. The histograms A-E show the activation (expressed in terms of the number of times the mRNA increases) of the genes Cyp1A1, Cyp1B1, IL-22, IL-10 and IDO1 respectively in the stomach (top diagram) and in the colon (bottom diagram) as a consequence of the stimulation. […] For comparison, also indicated are the values in the absence of stimulation with IAld. […] To assess the therapeutic effect in treating candidiasis, two experimental models were used of infection by C. albicans obtained by administration of the fungus intragastrically (by means of a tube) and intravaginally (by means of tip) respectively. To assess the therapeutic effect in treating colitis, the model used requires the administration of an irritant (dextran sodium sulphate, DDS), through the mouth. The assessment was made on mice C57BL/6 and on mice AhR^−/−, i.e., mice from which the AhR receptor had been artificially removed. The treatment with IAld lasted for 7 days.

Candida albicans [2] = assay: Infection by C. albicans, fungus given intragastrically; type: in vivo, mice; settings: 18 mg/kg intragastrically daily, 7 days
Procedure: as §1

Candida albicans [3] = assay: Infection by C. albicans, fungus given intravaginally; type: in vivo, mice; settings: 18 mg/kg intragastrically daily, 7 days
Procedure: as §1

colitis = assay: Colitis model induced by dextran sodium sulphate through the mouth; type: in vivo, mice; settings: 18 mg/kg intragastrically daily, 7 days
Procedure: as §1

T1 sequence (P30561 10-805 limits assumed): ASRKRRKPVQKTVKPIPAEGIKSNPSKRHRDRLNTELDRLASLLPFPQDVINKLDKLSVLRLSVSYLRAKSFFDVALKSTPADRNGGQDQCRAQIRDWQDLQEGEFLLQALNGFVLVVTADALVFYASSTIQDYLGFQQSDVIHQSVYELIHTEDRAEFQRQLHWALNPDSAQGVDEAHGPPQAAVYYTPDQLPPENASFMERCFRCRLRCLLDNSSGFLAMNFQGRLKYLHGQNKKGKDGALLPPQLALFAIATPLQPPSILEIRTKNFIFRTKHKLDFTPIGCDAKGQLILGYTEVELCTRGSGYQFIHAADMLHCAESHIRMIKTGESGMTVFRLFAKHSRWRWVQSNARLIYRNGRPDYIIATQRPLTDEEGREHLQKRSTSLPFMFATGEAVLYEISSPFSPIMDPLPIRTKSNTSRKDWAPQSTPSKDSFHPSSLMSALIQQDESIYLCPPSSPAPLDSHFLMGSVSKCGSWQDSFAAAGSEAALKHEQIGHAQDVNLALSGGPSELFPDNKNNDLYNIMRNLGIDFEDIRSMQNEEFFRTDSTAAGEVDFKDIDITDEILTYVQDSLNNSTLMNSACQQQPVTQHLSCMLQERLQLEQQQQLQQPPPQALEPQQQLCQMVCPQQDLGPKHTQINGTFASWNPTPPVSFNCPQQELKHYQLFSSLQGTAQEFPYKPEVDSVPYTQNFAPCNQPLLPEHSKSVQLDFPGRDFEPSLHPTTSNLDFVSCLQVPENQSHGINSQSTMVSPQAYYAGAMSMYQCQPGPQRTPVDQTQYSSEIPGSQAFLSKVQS
T1 sequence (P11499 whole entry partner): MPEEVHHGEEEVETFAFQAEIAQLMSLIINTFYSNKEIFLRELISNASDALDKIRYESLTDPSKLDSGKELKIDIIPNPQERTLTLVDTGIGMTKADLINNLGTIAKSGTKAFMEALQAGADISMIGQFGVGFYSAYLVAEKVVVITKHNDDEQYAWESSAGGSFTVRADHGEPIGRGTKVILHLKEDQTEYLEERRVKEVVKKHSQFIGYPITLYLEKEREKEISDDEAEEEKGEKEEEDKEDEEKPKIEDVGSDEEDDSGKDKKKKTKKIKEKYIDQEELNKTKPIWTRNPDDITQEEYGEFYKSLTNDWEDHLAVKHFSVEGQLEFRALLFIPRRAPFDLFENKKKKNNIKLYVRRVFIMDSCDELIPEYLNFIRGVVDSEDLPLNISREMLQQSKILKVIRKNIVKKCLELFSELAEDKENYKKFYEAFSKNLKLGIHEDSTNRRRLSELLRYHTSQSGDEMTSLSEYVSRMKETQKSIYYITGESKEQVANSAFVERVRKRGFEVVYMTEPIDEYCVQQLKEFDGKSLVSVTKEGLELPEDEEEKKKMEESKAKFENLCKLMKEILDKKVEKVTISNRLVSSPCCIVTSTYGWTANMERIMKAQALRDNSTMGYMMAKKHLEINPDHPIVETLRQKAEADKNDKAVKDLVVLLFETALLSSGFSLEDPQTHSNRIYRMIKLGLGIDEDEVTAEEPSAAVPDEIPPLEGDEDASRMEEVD
T1 sequence (O08915 whole entry partner): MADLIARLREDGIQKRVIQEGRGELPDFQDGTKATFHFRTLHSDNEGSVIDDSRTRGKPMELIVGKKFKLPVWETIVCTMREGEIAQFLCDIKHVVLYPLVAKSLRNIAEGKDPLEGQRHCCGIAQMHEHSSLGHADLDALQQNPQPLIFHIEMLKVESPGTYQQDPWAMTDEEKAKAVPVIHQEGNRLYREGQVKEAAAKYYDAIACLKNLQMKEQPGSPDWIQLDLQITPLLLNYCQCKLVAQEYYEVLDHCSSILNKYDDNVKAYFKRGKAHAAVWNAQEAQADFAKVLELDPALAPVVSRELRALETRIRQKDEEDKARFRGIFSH

O=Cc1c[nH]c2ccccc12 [IAld, IH-indole-3-carbaldehyde]
dose dependence of AhR-agonist activity (AhR): closely dependent on the dose | AhR-agonist activity (luciferase activity as a percentage of the response induced by 50 nM FICZ) (AhR; compared with IAAld, ILA and IAA): substantially comparable to that of IAAld and is superior to that of ILA and IAA | dose dependence of gene activation [1]: strongly dependent on the dose | therapeutic effect in mice AhR−/− versus C57BL/6 (Candida albicans [2]; gastric candidiasis, mice AhR−/−): only to be found in mice C57BL/6 and not in mice AhR^−/− | growth of Candida albicans (CFU) at stomach level (Candida albicans [2]; mice C57BL/6, FIG. 3 diagram A): significant reduction in growth | activation of IL-22 and IL-10 in the stomach (Candida albicans [2]; mice C57BL/6, FIG. 3 histogram B): contemporaneous activation of IL-22 and IL-10 | growth of Candida albicans (CFU) at vagina level (Candida albicans [3]; mice C57BL/6, FIG. 3 diagram C): significant reduction in growth | activation of IL-22 and IL-10 in the vagina (Candida albicans [3]; mice C57BL/6, FIG. 3 histogram B (so in the source)): contemporaneous activation of IL-22 and IL-10 | therapeutic effect in mice AhR−/− versus C57BL/6 (Candida albicans [3]; vaginal candidiasis, mice AhR−/−): only to be found in mice C57BL/6 and not in mice AhR^−/− | therapeutic effect in mice AhR−/− versus C57BL/6 (colitis; colitis, mice AhR−/−): only to be found in mice C57BL/6 and not in mice AhR^−/− | percentage variation in body weight (colitis; mice C57BL/6 with colitis, FIG. 3 graph E): prevention of the reduction in body weight | degree of tissue inflammation (colon histopathology) (colitis; mice C57BL/6 with colitis, FIG. 3 photographs F): improvement in the degree of tissue inflammation | cells producing IL-22 (immunofluorescence) (colitis; mice C57BL/6 with colitis, FIG. 3 photographs G): expansion of cells producing IL-22
